This data set concerns mouse carcinogenicity bioassay, TD50 from CPDB. Kind of data set: DSSTox (CPDBAS) Carcinogenic Potency Database Summary Mouse Bioassay Results. Conditions: for outcome: TD50_Mouse_Note: no positive results. The gist of the method:
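Values are TD50 carcinogenic potencies from mouse chronic bioassays, taking the most positive result for each sex-species. Sources are published literature and NCI/NTP studies; target sites reflect author-reported positive findings.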

Where [1] appears, read: TargetSites_Mouse_Female: no positive results.
The mark [2] stands for this setting: TargetSites_Mouse_Female: liver.
Where [3] appears, read: TD50_Mouse_Note: TD50 is harmonic mean of more than one positive test, TargetSites_Mouse_Female: liver.

The source made the active and inactive calls.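 Rule for the calls: active = a tumour-causing dose and a tumour site recorded for mice in at least one sex group; inconclusive = only government mouse studies exist and were judged inadequate; inactive = mouse studies exist but none gave tumours.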

Take `CC1(C)[C@@H](OC2O[C@H](C(=O)O)[C@@H](O)[C@H](O)[C@H]2O[C@H]2O[C@H](C(=O)O)[C@@H](O)[C@H](O)[C@H]2O)CC[C@]2(C)[C@H]3C(=O)C=C4[C@@H]5C[C@@](C)(C(=O)O)CC[C@]5(C)CC[C@@]4(C)[C@]3(C)CC[C@@H]12` (some centres undefined): the outcome under setting [1] is “inactive; no positive results”. `Cc1cccc2ccccc12`: under setting [1], the outcome was “inactive; no positive results”. Take `CCSCCC(N)C(=O)O` (centres undefined): where the note is “TD50_Mouse_Note: TD50 is harmonic mean of more than one positive test, greater than ten-fold variation among TD50 values for positive res, TargetSites_Mouse_Female: liver”, the Potency is 0.437 mmol/kg/day. On to `O=[Se]=O`, for which the outcome was inactive. For `CN(C)c1ccc(C(=C2C=CC(=[N+](C)C)C=C2)c2ccc(N(C)C)cc2)cc1`, the Potency (TD50_Mouse_Note: TD50 is harmonic mean of more than one positive test, TargetSites_Mouse_Female: harderian gland, hematopoietic system, liver) is 0.222 mmol/kg/day. As for `[CH3][Hg][Cl]`, where the note is “TD50_Mouse_Note: TD50 is harmonic mean of more than one positive test, TargetSites_Mouse_Female: no positive results”, the Potency was 0.00578 mmol/kg/day. For the compound `Nc1ccc(Cl)c(N)c1`, the Potency under setting [2] was 8.63 mmol/kg/day.

As to `CC(C)COC(=O)c1ccc(O)cc1`, the outcome under setting [1] was “inactive; no positive results”. Take `NNc1nc(-c2ccc([N+](=O)[O-])o2)cs1`: the Potency (TargetSites_Mouse_Female: stomach) is 0.0725 mmol/kg/day. As for `Nc1ccccc1C(=O)OC/C=C/c1ccccc1`, the Potency under setting [3] was 10.2 mmol/kg/day. On to `C=CF`, for which the Potency (TD50_Mouse_Note: TD50 is harmonic mean of more than one positive test, TargetSites_Mouse_Female: harderian gland, lung, mammary gland, vascular system) was 0.176 mmol/kg/day. `CC(O)c1ccccc1` (centres undefined): the outcome under setting [1] was “inactive; no positive results”.

`CC(C)(C)c1cc(O)ccc1O`: under setting [1], the outcome was “inactive; no positive results”. As for `NC(=O)c1cccnc1`, the outcome under setting [1] was “inactive; no positive results”.

In the case of `CN(C)CCOC(c1ccccc1)c1ccccc1`, the outcome under setting [1] is “inactive; no positive results”. For `Cc1cc(Cl)ccc1OCC(=O)O`, the outcome under setting [1] was “inactive; no positive results”. For the compound `Oc1ccccc1`, the outcome under setting [1] is “inactive; no positive results”.

Consider `O=C(O)[C@@H]1[C@H](C(=O)O)[C@@]2(Cl)C(Cl)=C(Cl)[C@]1(Cl)C2(Cl)Cl`, for which the Potency under setting [1] was 0.363 mmol/kg/day. Turning to `Nc1c(Cl)cc([N+](=O)[O-])cc1Cl`, under setting [1], the outcome was “inactive; no positive results”. For `Nc1ccc2nc3ccccn3c2n1`, the Potency (TD50_Mouse_Note: TD50 is harmonic mean of more than one positive test, TargetSites_Mouse_Female: liver, vascular system) was 0.0869 mmol/kg/day. Regarding `c1ccc2ccccc2c1`, the Potency (TargetSites_Mouse_Female: lung) is 1.27 mmol/kg/day.

In the case of `Oc1ccc2ccccc2c1N=Nc1ccccc1`, under setting [1], the outcome is “inactive; no positive results”. As to `O=C1O[C@H]([C@H](O)CO)C(O)=C1O`, the outcome under setting [1] is “inactive; no positive results”.

As to `BrCCBr`, where the note is “TD50_Mouse_Note: TD50 is harmonic mean of more than one positive test, greater than ten-fold variation among TD50 values for positive res, TargetSites_Mouse_Female: esophagus, lung, mammary gland, nasal cavity, stomach, subcutaneous tissue, vascular system”, the Potency was 0.0397 mmol/kg/day. `CC1(C)S[C@@H]2[C@H](NC(=O)COc3ccccc3)C(=O)N2[C@H]1C(=O)O`: the outcome under setting [1] is “inactive; no positive results”.

For `Cc1cc(N=Nc2c(O)ccc3ccccc23)c(S(=O)(=O)O)cc1Cl`, under setting [1], the outcome was “inactive; no positive results”.

Regarding `CCCCC(CC)COC(=O)COc1ccc(Cl)cc1Cl` (centres undefined), under setting [1], the outcome was “inactive; no positive results”. For `[N]=O`, the result under setting [1] was inactive. Take `O=C(O)COc1ccc(Cl)cc1Cl`: the outcome under setting [1] is “inactive; no positive results”. On to `CCCc1c(OCCCCc2nn[nH]n2)ccc(C(C)=O)c1O`, for which the Potency under setting [2] is 0.352 mmol/kg/day.

On to `CC[C@H]1OC(=O)C[C@@H](O)[C@H](C)[C@@H](O[C@@H]2O[C@H](C)[C@@H](O[C@H]3C[C@@](C)(O)[C@@H](O)[C@H](C)O3)[C@H](N(C)C)[C@H]2O)[C@@H](CC=O)C[C@@H](C)C(=O)/C=C/C(C)=C/C1CO[C@@H]1O[C@H](C)[C@@H](O)[C@@H](OC)[C@H]1OC` (some centres undefined), for which the outcome under setting [1] was “inactive; no positive results”. For the compound `CCCCCc1cc(O)c2c(c1)OC(C)(C)[C@@H]1CCC(C)=C[C@@H]21`, the outcome under setting [1] is “inactive; no positive results”. In the case of `NNC(=O)c1cccnc1`, under “TD50_Mouse_Note: TD50 is harmonic mean of more than one positive test, TargetSites_Mouse_Female: lung”, the Potency was 1.66 mmol/kg/day. As for `CN1CCC[C@H]1c1cccnc1`, the outcome under setting [1] was “inactive; no positive results”. For `O=C(O)C(Cl)Cl`, the Potency under setting [3] was 0.923 mmol/kg/day. For the compound `NNc1nc(-c2ccc([N+](=O)[O-])cc2)cs1`, the Potency (TargetSites_Mouse_Female: hematopoietic system) was 0.0449 mmol/kg/day. For `ClC#CCl`, the Potency (TD50_Mouse_Note: TD50 is harmonic mean of more than one positive test, TargetSites_Mouse_Female: harderian gland, kidney) is 0.00605 mmol/kg/day. Take `Cc1ccc(S(=O)(=O)NC(=O)NN2CCCCCC2)cc1`: under setting [1], the outcome is “inactive; no positive results”. Same read-out and setting: under `OC[C@H]1O[C@H](O[C@]2(CCl)O[C@H](CCl)[C@@H](O)[C@@H]2O)[C@H](O)[C@@H](O)[C@H]1Cl` stands “inactive; no positive results”.

These data come from PubChem BioAssay AID1199 (EPA DSSTox, 2008).
